Assay results reported in patent US20100298314A1, “NOVEL JNK INHIBITORS” (Schering Corporation, priority 2006, published 2010).
Values joined by “and” are separate entries in the source; they are usually repeats but may differ in a detail not shown here. Equal entries are not always repeated. Where two headings read alike, the source gives them in different places.

Experiments:
Type in all cases: biochemical
JNK1 = JNK1 (Homo sapiens, UniProt P45983); experiment: JNK1 kinase DELFIA (phosphorylation of biotinylated GST-ATF2)
Description: (§1) Before initiation of kinase reactions, compounds were pre-incubated with the enzyme for 10 minutes. Pre-incubation reactions contained 50 mM HEPES pH 7.3, 10 mM MgCl2, 1 mM DTT, 75 mM NaCl, 1 mM EDTA, 1 mM EGTA, 0.01% CHAPS, 2 nM JNK1, 6 ug/mL biotinylated GST-ATF2, 0.1 mg/ml BSA, 5% DMSO and 0-100 μM compound in a total volume of 40 μL. After a 10 minute room temperature pre-incubation, 10 μL of 35 μM ATP was added to start the reaction (final concentration of ATP=7 uM). Reactions were incubated at room temperature for 30 minutes. A small aliquot (10 uL) was taken and quenched by adding into 190 uL of DELFIA Assay buffer containing 100 mM EDTA. The amount of phosphate transferred to biotinylated GST-ATF2 was measured using the Dissociation Enhanced Lanthanide Fluorescence Immuno-assay (DELFIA) from Perkin Elmer according to manufacturers protocol. Briefly, biotinylated GST-ATF2 was captured on streptavidin coated plates for 1 hour, washed twice, then incubated for 1 hour with a 1:1000 dilution of rabbit-anti-phospho-ATF2 antibody and a 1:3500 dilution of Europium-labeled anti-rabbit secondary antibody. Free antibody was removed with six washes, Europium was dissociated from the antibody, and Europium fluorescence was measured using an excitation wavelength of 340 nm and an emission wavelength of 615 nm. JNK2 and JNK3 kinase reactions were carried out similarly, with the exception that the final concentration of ATP was 4 uM and 2 uM, respectively.

JNK3 = JNK3 (Homo sapiens, UniProt P53779); experiment: JNK3 kinase DELFIA (phosphorylation of biotinylated GST-ATF2); conditions: final ATP 2 uM
Description: as §1

JNK2 = JNK2 (Homo sapiens, UniProt P45984); experiment: JNK2 kinase DELFIA (phosphorylation of biotinylated GST-ATF2); conditions: final ATP 4 uM, reported as range for a group
Description: as §1

[1] = DELFIA, 2 nM JNK1, final ATP 7 uM, 10 min pre-incubation, reported as range for a group

Chain of JNK3 (P53779 whole entry, species assumed): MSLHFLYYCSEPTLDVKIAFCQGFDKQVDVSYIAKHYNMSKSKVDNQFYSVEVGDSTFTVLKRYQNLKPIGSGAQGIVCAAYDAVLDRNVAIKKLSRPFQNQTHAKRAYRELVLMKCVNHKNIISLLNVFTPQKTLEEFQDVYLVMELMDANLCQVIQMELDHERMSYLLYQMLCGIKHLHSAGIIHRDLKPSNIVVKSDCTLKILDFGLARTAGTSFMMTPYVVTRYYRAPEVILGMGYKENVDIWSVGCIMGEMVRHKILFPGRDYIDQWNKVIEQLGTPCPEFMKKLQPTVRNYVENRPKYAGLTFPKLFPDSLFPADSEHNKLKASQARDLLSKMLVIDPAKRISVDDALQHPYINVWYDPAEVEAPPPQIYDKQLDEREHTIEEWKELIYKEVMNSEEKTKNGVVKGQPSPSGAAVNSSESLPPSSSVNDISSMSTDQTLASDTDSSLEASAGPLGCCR
Chain of JNK2 (P45984 whole entry, species assumed): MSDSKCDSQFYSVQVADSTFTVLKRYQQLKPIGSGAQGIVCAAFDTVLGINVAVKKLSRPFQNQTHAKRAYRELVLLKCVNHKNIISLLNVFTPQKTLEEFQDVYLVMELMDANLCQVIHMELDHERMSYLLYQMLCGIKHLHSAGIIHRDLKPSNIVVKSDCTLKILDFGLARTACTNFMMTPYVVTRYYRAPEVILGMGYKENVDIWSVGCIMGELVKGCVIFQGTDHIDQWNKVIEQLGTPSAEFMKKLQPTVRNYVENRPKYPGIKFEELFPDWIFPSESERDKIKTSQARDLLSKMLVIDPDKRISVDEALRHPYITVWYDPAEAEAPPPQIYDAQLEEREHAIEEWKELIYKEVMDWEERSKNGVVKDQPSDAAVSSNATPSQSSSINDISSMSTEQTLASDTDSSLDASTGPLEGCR
Chain of JNK1 (P45983 whole entry, species assumed): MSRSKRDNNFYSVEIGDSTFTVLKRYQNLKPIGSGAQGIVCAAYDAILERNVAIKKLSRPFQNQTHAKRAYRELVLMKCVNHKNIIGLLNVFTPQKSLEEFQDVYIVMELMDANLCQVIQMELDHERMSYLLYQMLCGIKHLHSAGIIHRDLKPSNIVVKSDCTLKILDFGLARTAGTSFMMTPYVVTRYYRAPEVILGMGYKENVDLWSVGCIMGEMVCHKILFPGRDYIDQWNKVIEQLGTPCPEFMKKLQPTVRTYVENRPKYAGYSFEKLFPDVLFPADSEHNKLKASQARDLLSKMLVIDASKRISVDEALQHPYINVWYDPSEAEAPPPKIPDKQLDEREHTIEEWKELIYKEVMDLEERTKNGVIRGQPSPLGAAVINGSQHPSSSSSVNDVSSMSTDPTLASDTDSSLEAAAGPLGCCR

IC50 (JNK1; [1]) | SMILES | other results
6 to 100 nM | CC(C)C[C@@H](CO)NC(=O)c1c(-c2ccccn2)nc2c(C(=O)NCc3cnn(-c4cccc(C(F)(F)F)c4)c3)cccn12 [Compound 484] | –
6 to 100 nM | CCCC[C@@H](CO)NC(=O)c1c(-c2ccsc2)nc2c(C(=O)NCc3ccc4nc(N)sc4c3)cccn12 [Compound 280] | –
6 to 100 nM | Cc1nc2ccc(CNC(=O)c3cccn4c(C(=O)NC(C)C)c(-c5ccccn5)nc34)cc2[nH]1 [Compound 480] | –
6 to 100 nM | CC(C)[C@@H](CO)NC(=O)c1c(-c2ccsc2)nc2c(C(=O)NCc3ccc4nc(N)sc4c3)cccn12 [Compound 47] | –
6 to 100 nM | CCc1nc2c(C(=O)NCc3cnn(-c4ccc(C)cc4)c3)cccn2c1C(=O)O [Compound 445] | –
6 to 100 nM and 6 to 20 nM | Cc1nc2c(C(=O)NCc3ccc4nc(N)sc4c3)cccn2c1C(=O)N[C@H](CO)CC(C)C [Compound 598] | –
6 to 100 nM | CC(C)C[C@@H](CO)NC(=O)c1c(-c2ccsc2)nc2c(C(=O)NCc3cnc4nc(N)sc4c3)cccn12 [Compound 150] | –
– | CC(C)C[C@@H](CO)NC(=O)c1c(-c2ccsc2)nc2c(C(=O)NCc3ccc(-c4ccccn4)s3)cccn12 [Compound 215] | IC50 (JNK3): 9 to 50 nM; IC50 (JNK2): 52 to 94 nM
6 to 100 nM | CC(C)C[C@@H](CO)NC(=O)c1c(-c2ccsc2)nc2c(C(=O)NCc3ccc(N4CCCC4=O)nc3)cccn12 [Compound 324] | –
6 to 100 nM | CCc1nc2c(C(=O)NCc3cnn(-c4ccc(S(C)(=O)=O)cc4)c3)cccn2c1C(=O)N[C@H](CO)CC(C)C [Compound 472] | –
6 to 100 nM | COc1ccc(-c2cc(CNC(=O)c3cccn4c(C(=O)N[C@H](CO)CC(C)C)c(-c5ccsc5)nc34)no2)cc1 [Compound 274] | –
6 to 100 nM and 6 to 20 nM and 6 to 10 nM | CC(C)C[C@@H](CO)NC(=O)c1c(-c2ccccn2)nc2c(C(=O)NCc3ccc4[nH]ncc4c3)cccn12 [Compound 502] | –
– | Cc1cc(C(=O)NCc2ccc3nc(N)sc3c2)c2nc(C)c(C(=O)N[C@H](CO)CC(C)C)n2c1 [Compound 351] | IC50 (JNK2): 1070 to 11500 nM
6 to 100 nM | CC[C@H](C)[C@@H](CO)NC(=O)c1c(-c2ccsc2)nc2c(C(=O)NCc3ccc4nc(N)sc4c3)cccn12 [Compound 46] | –
6 to 100 nM | CC(C)c1nc2ccc(CNC(=O)c3cccn4c(C(=O)NCC5(O)CCCCC5)c(-c5ccsc5)nc34)cc2[nH]1 [Compound 117] | –
– | CC(C)C[C@@H](CO)NC(=O)c1c(-c2ccsc2)nc2c(C(=O)NCc3ccc4nc[nH]c4c3)cccn12 [Compound 111] | IC50 (JNK3): 54 to 98 nM; IC50 (JNK2): 52 to 94 nM
6 to 100 nM | Nc1nc2ccc(CNC(=O)c3cccn4c(C(=O)N[C@H](CO)C5CCCCC5)c(-c5ccsc5)nc34)cc2s1 [Compound 69] | –
6 to 100 nM | COC[C@H](CC(C)C)NC(=O)c1c(-c2ccsc2)nc2c(C(=O)NCc3ccc4nc(N)sc4c3)cccn12 [Compound 593] | –
6 to 100 nM | CC(C)C[C@@H](CO)NC(=O)c1c(-c2ccccc2F)nc2c(C(=O)NCc3ccc4nc(N)sc4c3)cccn12 [Compound 545] | –

IC50 (JNK1; [1]) | SMILES | other results
– | C[C@@H](NC(=O)c1c(-c2ccsc2)nc2c(C(=O)NCc3ccc4nc(N)sc4c3)cccn12)c1ccccc1 [Compound 42] | IC50 (JNK3): 118 to 174 nM; IC50 (JNK2): 52 to 94 nM
– | CC[C@@H](CO)NC(=O)c1c(-c2ccsc2)nc2c(C(=O)NCc3ccc(-n4nccc4C(C)C)cc3)cccn12 [Compound 178] | IC50 (JNK3): 209 to 479 nM; IC50 (JNK2): 201 to 666 nM
6 to 100 nM and 6 to 20 nM | Cc1nc2ccc(-n3cc(CNC(=O)c4cccn5c(C(=O)N[C@H](CO)CC(C)C)cnc45)cn3)cc2n1C [Compound 647] | IC50 (JNK1; read-out: JNK 1 IC50): 16 nM
6 to 100 nM | CC(C)C[C@@H](CO)NC(=O)c1c(-c2ccsc2)nc2c(C(=O)NCc3ccc(N4CCCCCC4)nc3)cccn12 [Compound 298] | –
6 to 100 nM and 6 to 20 nM and 6 to 10 nM | CC(C)C[C@@H](CO)NC(=O)c1cnc2c(C(=O)NCc3cnn(-c4ccc(S(=O)(=O)N(C)C)c(F)c4)c3)cccn12 [Compound 652] | IC50 (JNK1; read-out: JNK 1 IC50): 11 nM
6 to 100 nM | CC(C)C[C@@H](CO)NC(=O)c1c(-c2ccsc2)nc2c(NC(=O)Cc3ccc4c(c3)OCO4)cccn12 [Compound 664] | –
6 to 100 nM and 6 to 20 nM | Cc1nc2cc(CNC(=O)c3cccn4c(C(=O)N[C@H](CO)CC(C)C)c(-c5ccsc5)nc34)ccc2n1C [Compound 139] | –
6 to 100 nM | CCc1nc2c(C(=O)NCc3ccc4[nH]ncc4c3)cccn2c1C(=O)N[C@H](CO)CC(C)C [Compound 471] | –
6 to 100 nM | Nc1nc2ccc(CNC(=O)c3cccn4c(C(=O)N[C@@H]5c6ccccc6C[C@@H]5O)c(-c5ccsc5)nc34)cc2s1 [Compound 279] | –
6 to 100 nM | CC(C)C[C@@H](CO)NC(=O)c1c(-c2ccccn2)nc2c(C(=O)NCc3ccc4occc4c3)cccn12 [Compound 489] | –
6 to 100 nM | Nc1nc2ccc(CNC(=O)c3cccn4c(C(=O)N[C@@H](CO)CC5CC5)c(-c5ccsc5)nc34)cc2s1 [Compound 285] | –
6 to 100 nM | CCc1nc2c(C(=O)NCc3ccc(S(C)(=O)=O)cc3)cccn2c1C(=O)N[C@H](CO)CC(C)C [Compound 457] | –
6 to 100 nM | CC(C)C[C@@H](CO)NC(=O)c1c(-c2cccnc2)nc2c(C(=O)NCc3ccc4nc(N)sc4c3)cccn12 [Compound 405] | –
6 to 100 nM | CC(C)C[C@@H](CO)NC(=O)c1c(-c2ccsc2)nc2c(C(=O)NCc3ccc(-c4ccccc4)nc3)cccn12 [Compound 305] | –
6 to 100 nM | CC(C)C[C@@H](CO)NC(=O)c1c(-c2ccc(Cl)cc2)nc2c(C(=O)NCc3ccc4nc(N)sc4c3)cccn12 [Compound 453] | –
6 to 100 nM | CC(C)C[C@@H](CO)NC(=O)c1c(-c2ccsc2)nc2c(C(=O)N[C@H](C)c3ccc(O)cc3)cccn12 [Compound 213] | –
6 to 20 nM | CNc1nc2ccc(CNC(=O)c3cccn4c(C(=O)N[C@H](CO)CC(C)C)c(-c5ccccn5)nc34)cc2s1 [Compound 156] | –
6 to 20 nM and 6 to 10 nM | CC(C)C[C@@H](CO)NC(=O)c1cnc2c(C(=O)NCc3cnn(-c4ccc(S(C)(=O)=O)cc4)c3)cccn12 [Compound 629] | –
6 to 100 nM and 6 to 20 nM | CC(C)C[C@@H](CO)NC(=O)c1c(-c2ccsc2)nc2c(C(=O)NCc3ccc4[nH]ncc4c3)cccn12 [Compound 277] | –

IC50 (JNK1; [1]) | SMILES | other results
6 to 100 nM | CC(C)C[C@@H](CO)NC(=O)c1c(-c2ccccn2)nc2c(C(=O)NCc3cnc4nc(N)sc4c3)cccn12 [Compound 481] | –
6 to 100 nM | CC(C)C[C@@H](CO)NC(=O)c1c(-c2ccsc2)nc2c(C(=O)NCc3cnn(-c4cccc(C(F)(F)F)c4)c3)cccn12 [Compound 224] | –
6 to 100 nM | CC(C)C[C@@H](CO)NC(=O)c1c(-c2ccsc2)nc2c(C(=O)NCc3ccc(NC4CCCC4)nc3)cccn12 [Compound 292] | –
6 to 100 nM | Cc1cccc(-n2cc(CNC(=O)c3cccn4c(C(=O)N[C@H](CO)CC(C)C)c(-c5ccccn5)nc34)cn2)c1 [Compound 490] | –
6 to 100 nM | CC(C)C[C@@H](CO)NC(=O)c1c(-c2ccsc2)nc2c(C(=O)NCc3ccc4c(c3)OCO4)cccn12 [Compound 94] | –
6 to 100 nM | CC(C)C[C@@H](CO)NC(=O)c1cnc2c(C(=O)NCc3ccc4nc(N)sc4c3)cccn12 [Compound 543] | –
6 to 100 nM and 6 to 20 nM and 6 to 10 nM | CC(C)CC(CO)NC(=O)c1cnc2c(C(=O)NCc3cnn(-c4ccc(S(=O)(=O)N(C)C)c(Cl)c4)c3)cccn12 (stereo not shown) [Compound 651] | IC50 (JNK1; read-out: JNK 1 IC50): 10 nM
6 to 100 nM and 6 to 20 nM | CC(C)C[C@@H](CO)NC(=O)c1cnc2c(C(=O)NCc3cnn(-c4ccc(S(=O)(=O)N(C)C)cc4)c3)cccn12 [Compound 650] | –
6 to 100 nM | O=C(NCc1ccc2c(c1)OCO2)c1cccn2c(C(=O)N[C@H](CO)c3ccccc3)c(-c3ccsc3)nc12 [Compound 238] | –
6 to 100 nM | CCc1nc2c(C(=O)NCc3ccc4nc(C)sc4c3)cccn2c1C(=O)N[C@H](CO)CC(C)C [Compound 131] | –
6 to 100 nM | CC(C)C[C@@H](CO)NC(=O)c1c(-c2ccsc2)nc2c(C(=O)NCc3ccc(C(=O)O)cc3)cccn12 [Compound 326] | –
6 to 100 nM | Nc1nc2ccc(CNC(=O)c3cccn4c(C(=O)NC5CCCC5CO)c(-c5ccsc5)nc34)cc2s1 (stereo not shown) [Compound 283] | –
6 to 100 nM | CC(C)C[C@@H](CO)NC(=O)c1c(-c2ccsc2)nc2c(C(=O)NCc3ccc(C(F)(F)F)nc3)cccn12 [Compound 209] | –
6 to 100 nM and 6 to 20 nM | CC(C)C[C@@H](CO)NC(=O)c1c(-c2ccccn2)nc2c(C(=O)NCc3ccc(N4CCCC4=O)cc3)cccn12 [Compound 485] | –
6 to 100 nM and 6 to 20 nM | CC(C)C[C@@H](CO)NC(=O)c1c(-c2ccccn2)nc2c(C(=O)NCc3cnn(-c4ccc(S(C)(=O)=O)cc4)c3)cccn12 [Compound 491] | –
6 to 100 nM | CC(C)C[C@@H](CO)NC(=O)c1c(-c2ccccn2)nc2c(C(=O)NCc3ccn(-c4ccccc4)n3)cccn12 [Compound 477] | –
6 to 100 nM | CSCC[C@@H](CO)NC(=O)c1c(-c2ccsc2)nc2c(C(=O)NCc3ccc(S(C)(=O)=O)cc3)cccn12 [Compound 242] | –
6 to 100 nM | Cc1nc2ccc(CNC(=O)c3cccn4c(C(=O)NCC5(O)CCCCC5)c(-c5ccsc5)nc34)cc2[nH]1 [Compound 118] | IC50 (JNK1; read-out: JNK 1 IC50): 23 nM
